Results from PubChem BioAssay AID2060604 (Molecular Pharmacology Branch, DTP, NCI, 2025).
One block for each compound: values may come before it.

System: 379773-124-R-J2-PDC complex spheroids, viability % test/control
Test: Anticancer human tumor 379773-124-R-J2-PDC patient-derived endometrial carcinoma cell line growth inhibition [CLK]
Details: for IC50: curve of first compound; for viability, T/C: stronger effect = lower value
Outline: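 Multi-cell-type spheroids combined patient-derived tumor cells with HUVEC endothelial cells and human mesenchymal stem cells. Paired agents were dosed in half-log steps down from about clinical Cmax, or from 10 microM where Cmax was unknown.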

[1] = second compound 0.0316 µM, first compound 0.0316 µM
[2] = second compound 0.0316 µM, first compound 0.1 µM
[3] = second compound 0.0316 µM, first compound 0.316 µM
[4] = second compound 0.0316 µM, first compound 1 µM
[5] = second compound 0.0316 µM, first compound 3.16 µM
[6] = second compound 0.0316 µM, first compound 10 µM
[7] = second compound 0.1 µM, first compound 0.0316 µM
[8] = second compound 0.1 µM, first compound 0.1 µM
[9] = second compound 0.1 µM, first compound 0.316 µM
[10] = second compound 0.1 µM, first compound 1 µM
[11] = second compound 0.1 µM, first compound 3.16 µM
[12] = second compound 0.1 µM, first compound 10 µM
[13] = second compound 0.316 µM, first compound 0.0316 µM
[14] = second compound 0.316 µM, first compound 0.1 µM
[15] = second compound 0.316 µM, first compound 0.316 µM
[16] = second compound 0.316 µM, first compound 1 µM
[17] = second compound 0.316 µM, first compound 3.16 µM
[18] = second compound 0.316 µM, first compound 10 µM
[19] = second compound 1 µM, first compound 0.0316 µM
[20] = second compound 1 µM, first compound 0.1 µM
[21] = second compound 1 µM, first compound 0.316 µM
[22] = second compound 1 µM, first compound 1 µM
[23] = second compound 1 µM, first compound 3.16 µM
[24] = second compound 1 µM, first compound 10 µM
[25] = second compound 3.16 µM, first compound 0.0316 µM
[26] = second compound 3.16 µM, first compound 0.1 µM
[27] = second compound 3.16 µM, first compound 0.316 µM
[28] = second compound 3.16 µM, first compound 1 µM
[29] = second compound 3.16 µM, first compound 3.16 µM
[30] = second compound 3.16 µM, first compound 10 µM
[31] = second compound 10 µM, first compound 0.0316 µM
[32] = second compound 10 µM, first compound 0.1 µM
[33] = second compound 10 µM, first compound 0.316 µM
[34] = second compound 10 µM, first compound 1 µM
[35] = second compound 10 µM, first compound 3.16 µM
[36] = second compound 10 µM, first compound 10 µM
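Note: compound exposure lasted seven days before the viability readout.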
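Throughout, for viability, T/C: 100% = DMSO vehicle control wells.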

IC50 (second compound 0.0316 µM): 0.00154 µM
IC50 (second compound 0.1 µM): < 0.000949 µM
IC50 (second compound 0.316 µM): < 0.000949 µM
IC50 (second compound 1 µM): < 0.000949 µM
IC50 (second compound 3.16 µM): < 0.000949 µM
IC50 (second compound 10 µM): < 0.000949 µM
Structure (SMILES): CC(C)CC(NC(=O)C(Cc1ccccc1)NC(=O)c1cnccn1)B(O)O (stereo unspecified) + CNC(=O)c1ccc(Nc2nc(OC3CCCC3)c3c(-c4ccc5nc(C)oc5c4)c[nH]c3n2)c(OC)c1
viability, T/C (second compound 0.0316 µM, first compound 0.000949 µM): 81.6%
viability, T/C (second compound 0.0316 µM, first compound 0.003 µM): 6.67%
viability, T/C (second compound 0.0316 µM, first compound 0.00949 µM): 0.17%
viability, T/C (second compound 0.0316 µM, first compound 0.03 µM): 0.19%
viability, T/C (second compound 0.0316 µM, first compound 0.0949 µM): 0.13%
viability, T/C (second compound 0.0316 µM, first compound 0.3 µM): 0.1%
viability, T/C (second compound 0.1 µM, first compound 0.000949 µM): 33.4%
viability, T/C (second compound 0.1 µM, first compound 0.003 µM): 3.4%
viability, T/C (second compound 0.1 µM, first compound 0.00949 µM): 0.32%
viability, T/C (second compound 0.1 µM, first compound 0.03 µM): 0.13%
viability, T/C (second compound 0.1 µM, first compound 0.0949 µM): 0.12%
viability, T/C (second compound 0.1 µM, first compound 0.3 µM): 0.09%
viability, T/C (second compound 0.316 µM, first compound 0.000949 µM): 42.3%
viability, T/C (second compound 0.316 µM, first compound 0.003 µM): 1.94%
viability, T/C (second compound 0.316 µM, first compound 0.00949 µM): 0.13%
viability, T/C (second compound 0.316 µM, first compound 0.03 µM): 0.1%
viability, T/C (second compound 0.316 µM, first compound 0.0949 µM): 0.08%
viability, T/C (second compound 0.316 µM, first compound 0.3 µM): 0.08%
viability, T/C (second compound 1 µM, first compound 0.000949 µM): 31.1%
viability, T/C (second compound 1 µM, first compound 0.003 µM): 1.88%
viability, T/C (second compound 1 µM, first compound 0.00949 µM): 0.11%
viability, T/C (second compound 1 µM, first compound 0.03 µM): 0.1%
viability, T/C (second compound 1 µM, first compound 0.0949 µM): 0.08%
viability, T/C (second compound 1 µM, first compound 0.3 µM): 0.08%
viability, T/C (second compound 3.16 µM, first compound 0.000949 µM): 30.1%
viability, T/C (second compound 3.16 µM, first compound 0.003 µM): 0.38%
viability, T/C (second compound 3.16 µM, first compound 0.00949 µM): 0.11%
viability, T/C (second compound 3.16 µM, first compound 0.03 µM): 0.09%
viability, T/C (second compound 3.16 µM, first compound 0.0949 µM): 0.1%
viability, T/C (second compound 3.16 µM, first compound 0.3 µM): 0.13%
viability, T/C (second compound 10 µM, first compound 0.000949 µM): 33.1%
viability, T/C (second compound 10 µM, first compound 0.003 µM): 0.42%
viability, T/C (second compound 10 µM, first compound 0.00949 µM): 0.13%
viability, T/C (second compound 10 µM, first compound 0.03 µM): 0.11%
viability, T/C (second compound 10 µM, first compound 0.0949 µM): 0.16%
viability, T/C (second compound 10 µM, first compound 0.3 µM): 0.12%

IC50 (second compound 0.0316 µM): 1.87 µM
IC50 (second compound 0.1 µM): < 0.0316 µM
IC50 (second compound 0.316 µM): < 0.0316 µM
IC50 (second compound 1 µM): < 0.0316 µM
IC50 (second compound 3.16 µM): < 0.0316 µM
IC50 (second compound 10 µM): < 0.0316 µM
Structure (SMILES): CC1COCCN1c1cc(C2(S(C)(=N)=O)CC2)nc(-c2ccnc3[nH]ccc23)n1 (stereo unspecified) + CNC(=O)c1ccc(Nc2nc(OC3CCCC3)c3c(-c4ccc5nc(C)oc5c4)c[nH]c3n2)c(OC)c1
viability, T/C [1]: 78%
viability, T/C [2]: 83.8%
viability, T/C [3]: 86.2%
viability, T/C [4]: 67.2%
viability, T/C [5]: 34.5%
viability, T/C [6]: 9.32%
viability, T/C [7]: 42.7%
viability, T/C [8]: 44.6%
viability, T/C [9]: 36.1%
viability, T/C [10]: 42.7%
viability, T/C [11]: 26%
viability, T/C [12]: 9.26%
viability, T/C [13]: 42.6%
viability, T/C [14]: 38.5%
viability, T/C [15]: 39.1%
viability, T/C [16]: 41.5%
viability, T/C [17]: 30.1%
viability, T/C [18]: 12.7%
viability, T/C [19]: 40.6%
viability, T/C [20]: 36.1%
viability, T/C [21]: 37%
viability, T/C [22]: 36.5%
viability, T/C [23]: 20.5%
viability, T/C [24]: 5.75%
viability, T/C [25]: 27.9%
viability, T/C [26]: 34%
viability, T/C [27]: 31.9%
viability, T/C [28]: 31.4%
viability, T/C [29]: 21.4%
viability, T/C [30]: 5.79%
viability, T/C [31]: 29.7%
viability, T/C [32]: 40.1%
viability, T/C [33]: 28.9%
viability, T/C [34]: 24.9%
viability, T/C [35]: 24.2%
viability, T/C [36]: 4.37%

IC50 (second compound 0.0316 µM): 5.6 µM
IC50 (second compound 0.1 µM): < 0.0316 µM
IC50 (second compound 0.316 µM): < 0.0316 µM
IC50 (second compound 1 µM): < 0.0316 µM
IC50 (second compound 3.16 µM): < 0.0316 µM
IC50 (second compound 10 µM): < 0.0316 µM
Structure (SMILES): O=C(c1cc(Cc2n[nH]c(=O)c3ccccc23)ccc1F)N1CCN(C(=O)C2CC2)CC1 + CNC(=O)c1ccc(Nc2nc(OC3CCCC3)c3c(-c4ccc5nc(C)oc5c4)c[nH]c3n2)c(OC)c1
viability, T/C [1]: 76.2%
viability, T/C [2]: 75.1%
viability, T/C [3]: 67.7%
viability, T/C [4]: 75.4%
viability, T/C [5]: 69.9%
viability, T/C [6]: 29.6%
viability, T/C [7]: 41.1%
viability, T/C [8]: 41.7%
viability, T/C [9]: 37.8%
viability, T/C [10]: 31.9%
viability, T/C [11]: 36.3%
viability, T/C [12]: 15.3%
viability, T/C [13]: 51.7%
viability, T/C [14]: 42.3%
viability, T/C [15]: 35.5%
viability, T/C [16]: 33.7%
viability, T/C [17]: 33%
viability, T/C [18]: 13.7%
viability, T/C [19]: 39.9%
viability, T/C [20]: 32.2%
viability, T/C [21]: 29.8%
viability, T/C [22]: 33.3%
viability, T/C [23]: 23.2%
viability, T/C [24]: 10.2%
viability, T/C [25]: 32.8%
viability, T/C [26]: 34.1%
viability, T/C [27]: 26.3%
viability, T/C [28]: 33.5%
viability, T/C [29]: 31%
viability, T/C [30]: 8.47%
viability, T/C [31]: 29.5%
viability, T/C [32]: 29.9%
viability, T/C [33]: 24.8%
viability, T/C [34]: 23.9%
viability, T/C [35]: 23.2%
viability, T/C [36]: 6.48%
